Assay results from PubChem BioAssay (NCI).
Where “and” joins values, the source holds several entries; their conditions need not be identical. Equal values may be shown once.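 Where inhibition never reached the appropriate level, the endpoint shown equals the highest concentration tested. Otherwise, values were interpolated linearly from a five-concentration, 48-hour dose response in 96-well plates. At the GI50, growth is halved. Definition used: TGI = concentration required for complete inhibition of growth.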 Where a SMILES comes first, the peptide text is derived from it. The star is where a group is joined. Cbz = O=C(OCc1ccccc1)*; Boc = CC(C)(C)OC(=O)*; OBn = c1ccc(CO*)cc1

Key:
Assay in all cases: growth of human tumour cells (NCI), 48 h
[1] = test system: NCI-H226 lung
[2] = test system: RPMI-8226 leukemia
[3] = test system: UO-31 renal
[4] = test system: SNB-75 CNS
[5] = test system: NCI/ADR-RES ovarian
[6] = test system: 786-0 renal
[7] = test system: SW-620 colon
[8] = test system: UACC-257 melanoma
[9] = test system: HCC-2998 colon
[10] = test system: BT-549 breast

Row | Structure (SMILES) | TGI [1] | TGI [2] [µM] | TGI [3] | TGI [4] | TGI [5] | TGI [6] [µM] | TGI [7] | TGI [8] | TGI [9] | GI50 [1] [µM] | GI50 [5] [µM] | GI50 [7] | GI50 [8] | TGI [10] [µM]
1 | O=C1C(Br)=CC2(C=C1Br)CCNC1=C2C(=O)c2cccnc2C1=O | 36.9 µM | 36.9 | 68.5 µM | 27.1 µM | 49.1 µM | 29.3 | 27.3 µM | 21.3 µM | 31.9 µM | – | – | – | – | –
2 | c1ccc2c(c1)CCc1cc3cc4c(nc3nc1-2)-c1ccccc1CC4 | > 100 µM | > 100 | > 100 µM | > 100 µM | – | > 100 | > 100 µM | > 100 µM | > 100 µM | – | – | – | – | –
3 | NC(=O)C#CC(N)=O | 169 µM and > 100 µM | 62.1 | 63.4 µM and > 81.1 µM | 79.8 µM and > 100 µM | 25.9 µM and 18 µM | > 58 | 18.2 µM and 12.1 µM and 31.1 µM | 14.2 µM and 19.5 µM | 179 µM and > 100 µM | 73.6 | 8.22 | 5.74 µM and 3.1 µM and 15.2 µM | 4.46 µM and 13.6 µM | –
4 | C=C(CC[C@@H](C(=O)O)[C@H]1[C@H](O)C[C@@]2(C)C3=CC[C@@H](C(=C)C)[C@](C)(CCC(=O)O)C3=CC[C@]12C)C(C)C | 36.3 µM | – | 31.5 µM | 36.5 µM | 42.3 µM | 31.1 | 55.5 µM | 30.6 µM | 32.4 µM | – | – | – | – | 33
5 | CCOC(=O)CNC(=O)C(C)NC(=O)C(NC(=O)CC(c1ncc[nH]1)c1ncc[nH]1)C(C)CC (centres undefined) | – | > 100 | > 100 µM | > 100 µM | > 100 µM | > 100 | > 100 µM | > 100 µM | > 100 µM | – | – | – | – | –
6 | C1CCC(OC2CSC2)OC1 (centres undefined) | > 100 µM | – | > 100 µM | > 100 µM | > 100 µM | – | > 100 µM | > 100 µM | > 100 µM | – | – | – | – | –
7 | COC(=O)C(Cc1ccc(O)cc1)NC(=O)C(CC(=O)OCc1ccccc1)NC(=O)OCc1ccccc1 (centres undefined) (Cbz-Asp(OBn)-Tyr-OMe; configuration not given here) | 43.2 µM | 49.8 | 49 µM | 32.6 µM | – | 32.1 | 44.8 µM | 45.5 µM | 31.5 µM | – | – | – | – | 37.4
8 | CC(NC(=O)C(NC(=O)OC(C)(C)C)C(C)C)C(=O)N1CCCC1C(=O)NCC(=O)NC(C(=O)NCC(=O)OCc1ccccc1)C(C)C (centres undefined) (Boc-VAPGVG-OBn; configuration not given here) | – | > 100 | > 100 µM | > 100 µM | > 100 µM | > 100 | > 100 µM | > 100 µM | > 100 µM | – | – | – | – | –
9 | CC(CO)C1C[C@H](O)[C@@]2(C)CC(=O)C=C(CO)[C@@H]2C1 (some centres undefined) | > 100 µM | – | > 100 µM | > 100 µM | > 100 µM | > 100 | > 100 µM | > 100 µM | > 100 µM | – | – | – | – | > 100
10 | Cc1cc(S(=O)(=O)O)c(NC(=O)C(=O)C2C=CCS2(=O)=O)cc1Cl (centres undefined) | > 100 µM | > 100 | > 100 µM | > 100 µM | – | > 100 | > 100 µM | > 100 µM | > 100 µM | – | – | – | – | –
11 | O=C1NC2(CCCCC2)C2CCCCCC12 (centres undefined) | > 100 µM | – | > 100 µM | > 100 µM | – | – | > 100 µM | > 100 µM | > 100 µM | – | – | – | – | –
12 | C=C1C(=O)OCC2C(C(=O)O)=CC3C(C)C(C)=CC123 (centres undefined) | 52.1 µM | 26.8 | 39.5 µM | 44.1 µM | 27.3 µM | – | 40.9 µM | 46 µM | 29 µM | – | – | – | – | –
13 | Cc1cccc(NC(=O)C(=O)C(C(=O)c2ccccc2F)C2OC(=O)c3ccccc32)c1Cl (centres undefined) | 62.3 µM | > 100 | > 100 µM | 64.2 µM | – | – | > 100 µM | > 100 µM | 43.7 µM | – | – | – | – | –
14 | CC(=O)OC(OC(C)=O)n1cc(C=O)c2ccccc21 | > 100 µM | > 100 | > 100 µM | – | > 100 µM | – | > 100 µM | > 100 µM | > 100 µM | – | – | – | – | –
15 | C=C(C)C(=O)[C@@]12C(=O)[C@@H](C)CC[C@H]1[C@H](C)C[C@@H]2C=C(C)C | > 100 µM | > 100 | 43 µM | > 100 µM | 83.5 µM | 42.4 | 44 µM | 33.5 µM | 28 µM | – | – | – | – | –
16 | COc1ccc2c(c1)n([O-])c(C#N)c(N1CCN(c3ccc([N+](=O)[O-])cc3)CC1)[n+]2=O | > 100 µM | – | – | 66.2 µM | 11.8 µM | > 100 | > 100 µM | > 100 µM | > 100 µM | – | – | – | – | > 76.7
17 | COc1cccc(/C=N/[N-]C(N)=O)c1[O-].[Ni+2].[OH3+].c1cnc2c(c1)ccc1cccnc12 | > 100 µM | > 100 | > 100 µM | > 100 µM | – | > 100 | > 100 µM | > 100 µM | – | – | – | – | – | –
18 | COc1cccc(N(CN2CC=CC2=O)C(C)=O)c1 | > 100 µM | > 100 | > 100 µM | > 100 µM | > 100 µM | > 100 | > 100 µM | > 100 µM | > 100 µM | – | – | – | – | –
